Measurements from publication PMC4883822, “High-Efficiency Capture of Drug Resistant-Influenza Virus by Live Imaging of Sialidase Activity” (PLoS ONE, 2016).

Target: T1, sialidase (neuraminidase, NA) of oseltamivir-sensitive 838 (Influenza A virus (A/Lima/070674913/2013(H1N1)), UniProt W8DXJ8)
T1 construct: full-length viral NA on whole virus grown in MDCK cells (or on infected MDCK cells); natural 275H
Assay: live-focus fluorescence imaging of sialidase activity, qualitative
Type: cell-based
Settings: substrate BTP3-Neu5Ac, 37 °C, 1 h, infected MDCK cells

CCC(CC)[C@H](NC(C)=O)[C@@H]1[C@H](O)[C@@H](C(=O)O)C[C@H]1N=C(N)N [peramivir]
inhibition at 10-1000 nM (qualitative): adding BTP3-Neu5Ac with clinical use-approved NAIs (oseltamivir, zanamivir, peramivir, and laninamivir)
